Publication PMC7026418, “The kinase polypharmacology landscape of clinical PARP inhibitors” (Scientific Reports, 2020)
Where two headings read alike, the source gives them in different places. Each block holds one compound with its values, some of them ahead of it.

How the values were obtained:
Assay in all cases: biochemical
Set-up in all cases: DiscoveRx KINOMEscan active site-directed competition binding; percent of control kinase bound to immobilised ligand
[1] = target: EIF2AK1 (Homo sapiens, UniProt Q9BQI3)
[2] = target: KIT(L576P) (Homo sapiens, UniProt P10721, L576P)
[3] = target: LYN (Homo sapiens, UniProt P07948)
[4] = target: PDGFRB (Homo sapiens, UniProt P09619)
[5] = target: PRKCD (Homo sapiens, UniProt Q05655)
[6] = target: T1, TEC (Homo sapiens, UniProt P42680)
T1 sequence (P42680 1-631): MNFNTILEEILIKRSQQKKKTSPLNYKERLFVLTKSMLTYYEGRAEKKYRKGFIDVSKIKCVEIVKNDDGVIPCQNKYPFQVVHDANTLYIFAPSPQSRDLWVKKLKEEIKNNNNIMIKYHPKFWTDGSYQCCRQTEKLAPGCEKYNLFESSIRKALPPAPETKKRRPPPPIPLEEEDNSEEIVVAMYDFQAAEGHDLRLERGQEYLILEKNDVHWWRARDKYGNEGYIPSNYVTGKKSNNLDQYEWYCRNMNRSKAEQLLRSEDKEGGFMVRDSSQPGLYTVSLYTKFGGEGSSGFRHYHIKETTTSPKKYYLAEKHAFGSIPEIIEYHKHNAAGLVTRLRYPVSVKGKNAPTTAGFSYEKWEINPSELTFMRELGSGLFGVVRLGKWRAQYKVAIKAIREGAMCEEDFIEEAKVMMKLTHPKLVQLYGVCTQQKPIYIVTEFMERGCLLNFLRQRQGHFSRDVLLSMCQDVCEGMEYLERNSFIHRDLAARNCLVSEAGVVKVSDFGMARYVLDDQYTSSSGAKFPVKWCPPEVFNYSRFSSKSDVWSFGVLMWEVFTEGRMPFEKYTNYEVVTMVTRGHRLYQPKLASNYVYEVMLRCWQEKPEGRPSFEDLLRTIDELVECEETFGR

[7] = target: TESK1 (Homo sapiens, UniProt Q15569)
[8] = target: T2, VPS34 (Homo sapiens, UniProt Q8NEB9)
T2 construct: gene PIK3C3

[9] = target: T3, YSK4 (Homo sapiens, UniProt Q56UN5)
T3 construct: gene MAP3K19
T3 sequence (Q56UN5 1-1328): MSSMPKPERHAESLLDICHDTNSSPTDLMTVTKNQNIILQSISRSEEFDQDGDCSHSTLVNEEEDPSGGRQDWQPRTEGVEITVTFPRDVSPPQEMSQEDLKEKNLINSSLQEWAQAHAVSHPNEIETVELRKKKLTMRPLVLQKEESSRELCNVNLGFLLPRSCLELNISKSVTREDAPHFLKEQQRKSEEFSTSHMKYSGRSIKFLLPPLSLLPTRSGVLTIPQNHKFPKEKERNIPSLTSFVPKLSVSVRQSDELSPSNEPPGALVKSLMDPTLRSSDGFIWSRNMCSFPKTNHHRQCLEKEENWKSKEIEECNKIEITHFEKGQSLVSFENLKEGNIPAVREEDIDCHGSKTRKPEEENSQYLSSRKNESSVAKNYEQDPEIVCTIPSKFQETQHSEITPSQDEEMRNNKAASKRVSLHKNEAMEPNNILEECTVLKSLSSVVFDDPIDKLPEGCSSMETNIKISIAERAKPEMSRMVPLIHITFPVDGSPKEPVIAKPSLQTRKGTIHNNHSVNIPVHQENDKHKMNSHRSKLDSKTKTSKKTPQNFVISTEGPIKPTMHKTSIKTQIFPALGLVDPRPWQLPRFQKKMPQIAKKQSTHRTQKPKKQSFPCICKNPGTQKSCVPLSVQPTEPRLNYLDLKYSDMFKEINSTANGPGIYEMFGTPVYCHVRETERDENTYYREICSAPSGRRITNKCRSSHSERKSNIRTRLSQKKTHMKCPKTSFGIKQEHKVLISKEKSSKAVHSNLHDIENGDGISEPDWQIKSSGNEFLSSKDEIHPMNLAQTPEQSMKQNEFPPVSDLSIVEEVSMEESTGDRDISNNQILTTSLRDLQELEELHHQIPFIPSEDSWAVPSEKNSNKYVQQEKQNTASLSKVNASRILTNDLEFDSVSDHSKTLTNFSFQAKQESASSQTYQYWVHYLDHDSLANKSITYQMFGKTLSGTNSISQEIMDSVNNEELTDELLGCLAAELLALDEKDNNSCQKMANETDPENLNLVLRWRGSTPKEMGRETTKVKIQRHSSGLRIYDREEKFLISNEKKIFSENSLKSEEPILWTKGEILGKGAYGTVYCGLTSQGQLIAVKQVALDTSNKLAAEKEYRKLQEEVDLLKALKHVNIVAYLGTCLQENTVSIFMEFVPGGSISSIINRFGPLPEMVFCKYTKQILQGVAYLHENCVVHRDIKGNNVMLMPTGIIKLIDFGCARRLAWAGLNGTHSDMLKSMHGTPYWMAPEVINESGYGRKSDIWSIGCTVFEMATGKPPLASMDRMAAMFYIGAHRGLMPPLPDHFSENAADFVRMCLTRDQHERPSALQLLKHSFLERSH

[10] = target: T4, ZAK (Homo sapiens, UniProt Q9NYL2)
T4 construct: gene MAP3K20

[11] = read-out: Olaparib / %Ctrl @ 10000nM
[12] = read-out: Talazoparib (BMN 673) / %Ctrl @ 10000nM
[13] = read-out: Rucaparib / %Ctrl @ 10000nM, binding competition, % of control
[14] = read-out: Niraparib (MK-4827) / %Ctrl @ 10000nM

Chain of PDGFRB (P09619 whole entry): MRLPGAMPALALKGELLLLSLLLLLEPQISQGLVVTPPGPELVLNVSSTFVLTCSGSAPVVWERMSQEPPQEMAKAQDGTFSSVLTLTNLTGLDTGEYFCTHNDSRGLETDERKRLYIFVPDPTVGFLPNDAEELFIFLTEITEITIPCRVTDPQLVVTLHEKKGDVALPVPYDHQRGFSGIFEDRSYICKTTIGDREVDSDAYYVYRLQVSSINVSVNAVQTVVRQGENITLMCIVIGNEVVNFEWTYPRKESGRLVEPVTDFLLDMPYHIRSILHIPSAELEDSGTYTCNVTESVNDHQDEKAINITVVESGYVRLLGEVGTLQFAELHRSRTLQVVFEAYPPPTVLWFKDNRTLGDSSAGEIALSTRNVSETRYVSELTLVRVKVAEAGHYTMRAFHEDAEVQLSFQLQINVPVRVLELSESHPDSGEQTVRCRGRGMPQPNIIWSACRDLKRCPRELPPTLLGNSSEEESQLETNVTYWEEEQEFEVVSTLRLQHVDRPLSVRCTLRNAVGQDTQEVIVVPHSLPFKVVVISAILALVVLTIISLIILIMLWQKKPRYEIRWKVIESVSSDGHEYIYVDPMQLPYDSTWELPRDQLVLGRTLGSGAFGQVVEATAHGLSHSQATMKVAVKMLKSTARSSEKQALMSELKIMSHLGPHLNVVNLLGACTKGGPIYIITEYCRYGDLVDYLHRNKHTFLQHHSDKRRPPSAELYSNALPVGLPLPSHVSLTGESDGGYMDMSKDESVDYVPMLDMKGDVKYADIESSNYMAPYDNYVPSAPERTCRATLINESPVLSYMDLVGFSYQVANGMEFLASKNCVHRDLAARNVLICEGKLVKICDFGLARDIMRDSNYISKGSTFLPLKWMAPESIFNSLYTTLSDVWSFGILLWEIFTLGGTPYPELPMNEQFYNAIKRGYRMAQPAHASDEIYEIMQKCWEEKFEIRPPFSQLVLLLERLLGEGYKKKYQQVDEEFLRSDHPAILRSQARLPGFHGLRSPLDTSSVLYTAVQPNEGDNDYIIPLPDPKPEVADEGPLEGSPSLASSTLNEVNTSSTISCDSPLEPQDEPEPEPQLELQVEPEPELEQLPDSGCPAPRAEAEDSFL
Chain of PRKCD (Q05655 whole entry): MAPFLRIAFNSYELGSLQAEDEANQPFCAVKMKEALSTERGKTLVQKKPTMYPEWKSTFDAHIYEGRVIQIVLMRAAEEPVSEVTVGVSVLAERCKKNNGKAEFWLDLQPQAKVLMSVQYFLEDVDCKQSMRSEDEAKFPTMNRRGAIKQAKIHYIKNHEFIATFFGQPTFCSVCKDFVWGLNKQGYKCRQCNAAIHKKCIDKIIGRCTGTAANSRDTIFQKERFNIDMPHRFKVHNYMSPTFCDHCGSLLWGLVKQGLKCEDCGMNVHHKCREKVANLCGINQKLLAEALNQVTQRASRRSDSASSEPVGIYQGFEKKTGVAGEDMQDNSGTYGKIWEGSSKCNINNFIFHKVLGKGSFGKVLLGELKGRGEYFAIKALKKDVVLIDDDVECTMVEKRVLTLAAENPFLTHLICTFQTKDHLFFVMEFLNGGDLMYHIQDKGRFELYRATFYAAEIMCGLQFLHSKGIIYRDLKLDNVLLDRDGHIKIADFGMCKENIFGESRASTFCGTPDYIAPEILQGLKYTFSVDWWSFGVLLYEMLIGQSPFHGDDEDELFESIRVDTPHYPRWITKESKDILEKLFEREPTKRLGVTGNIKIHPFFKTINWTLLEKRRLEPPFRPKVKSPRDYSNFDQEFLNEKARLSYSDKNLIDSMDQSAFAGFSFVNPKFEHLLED
Chain of LYN (P07948 whole entry): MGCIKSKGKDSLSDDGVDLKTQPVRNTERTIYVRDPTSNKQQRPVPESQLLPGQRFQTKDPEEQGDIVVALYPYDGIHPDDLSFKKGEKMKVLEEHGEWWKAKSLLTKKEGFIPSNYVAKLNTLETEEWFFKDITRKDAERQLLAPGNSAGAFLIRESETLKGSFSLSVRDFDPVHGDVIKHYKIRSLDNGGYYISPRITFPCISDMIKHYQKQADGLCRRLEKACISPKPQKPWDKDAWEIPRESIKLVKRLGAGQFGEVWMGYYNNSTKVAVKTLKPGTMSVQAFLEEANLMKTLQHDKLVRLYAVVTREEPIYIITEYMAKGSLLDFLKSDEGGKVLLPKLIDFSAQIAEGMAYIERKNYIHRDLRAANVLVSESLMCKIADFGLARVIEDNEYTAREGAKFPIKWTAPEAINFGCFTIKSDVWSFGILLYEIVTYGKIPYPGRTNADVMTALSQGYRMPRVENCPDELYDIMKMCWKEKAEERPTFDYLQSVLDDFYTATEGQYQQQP
Chain of KIT(L576P) (P10721 whole entry L576P): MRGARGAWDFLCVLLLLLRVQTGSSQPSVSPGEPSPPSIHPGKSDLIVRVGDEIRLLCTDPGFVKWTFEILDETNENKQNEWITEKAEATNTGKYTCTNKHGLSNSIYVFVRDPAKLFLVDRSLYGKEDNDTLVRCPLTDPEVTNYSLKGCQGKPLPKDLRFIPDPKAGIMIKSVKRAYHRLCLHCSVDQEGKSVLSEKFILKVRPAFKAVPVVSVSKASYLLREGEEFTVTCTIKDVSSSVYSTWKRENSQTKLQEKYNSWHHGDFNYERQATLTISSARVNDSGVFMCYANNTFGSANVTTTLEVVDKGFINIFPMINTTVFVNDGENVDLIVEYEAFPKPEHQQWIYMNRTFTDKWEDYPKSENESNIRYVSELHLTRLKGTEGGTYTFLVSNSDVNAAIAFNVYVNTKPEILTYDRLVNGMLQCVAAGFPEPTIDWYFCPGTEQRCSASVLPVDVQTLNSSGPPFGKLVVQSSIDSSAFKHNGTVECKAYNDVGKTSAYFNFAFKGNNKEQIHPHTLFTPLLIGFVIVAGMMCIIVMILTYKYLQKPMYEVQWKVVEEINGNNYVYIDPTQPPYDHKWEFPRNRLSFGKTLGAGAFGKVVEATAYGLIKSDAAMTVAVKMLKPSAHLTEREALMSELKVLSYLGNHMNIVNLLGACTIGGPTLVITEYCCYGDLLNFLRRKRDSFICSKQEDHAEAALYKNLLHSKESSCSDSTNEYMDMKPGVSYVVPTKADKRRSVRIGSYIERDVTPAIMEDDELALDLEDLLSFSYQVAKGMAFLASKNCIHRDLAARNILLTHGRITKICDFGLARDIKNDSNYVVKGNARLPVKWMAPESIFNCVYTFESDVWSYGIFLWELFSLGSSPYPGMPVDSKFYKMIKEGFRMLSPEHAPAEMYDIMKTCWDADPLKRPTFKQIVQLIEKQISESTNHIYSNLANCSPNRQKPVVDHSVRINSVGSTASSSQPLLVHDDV
T4 sequence (Q9NYL2 whole entry): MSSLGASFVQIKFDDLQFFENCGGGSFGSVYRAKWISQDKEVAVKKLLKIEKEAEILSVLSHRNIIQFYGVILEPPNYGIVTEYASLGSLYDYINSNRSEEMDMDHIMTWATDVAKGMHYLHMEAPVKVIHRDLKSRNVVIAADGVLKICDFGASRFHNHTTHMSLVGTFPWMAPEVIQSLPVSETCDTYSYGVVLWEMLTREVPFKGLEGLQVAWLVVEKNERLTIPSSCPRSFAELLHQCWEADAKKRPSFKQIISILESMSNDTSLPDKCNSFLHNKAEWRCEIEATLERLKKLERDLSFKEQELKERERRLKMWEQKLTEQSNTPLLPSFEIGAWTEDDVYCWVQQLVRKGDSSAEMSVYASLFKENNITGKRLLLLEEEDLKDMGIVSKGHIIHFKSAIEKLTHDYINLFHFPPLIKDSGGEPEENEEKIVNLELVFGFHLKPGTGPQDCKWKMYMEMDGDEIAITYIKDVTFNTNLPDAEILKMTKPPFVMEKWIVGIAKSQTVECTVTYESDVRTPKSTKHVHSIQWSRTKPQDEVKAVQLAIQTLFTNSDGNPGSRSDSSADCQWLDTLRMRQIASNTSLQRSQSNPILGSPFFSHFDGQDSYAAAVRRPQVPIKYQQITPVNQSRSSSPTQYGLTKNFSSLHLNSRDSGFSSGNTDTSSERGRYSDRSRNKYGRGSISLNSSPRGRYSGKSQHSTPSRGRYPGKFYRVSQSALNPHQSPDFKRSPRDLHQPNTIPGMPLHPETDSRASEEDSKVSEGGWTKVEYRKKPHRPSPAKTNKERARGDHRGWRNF
Chain of EIF2AK1 (Q9BQI3 whole entry): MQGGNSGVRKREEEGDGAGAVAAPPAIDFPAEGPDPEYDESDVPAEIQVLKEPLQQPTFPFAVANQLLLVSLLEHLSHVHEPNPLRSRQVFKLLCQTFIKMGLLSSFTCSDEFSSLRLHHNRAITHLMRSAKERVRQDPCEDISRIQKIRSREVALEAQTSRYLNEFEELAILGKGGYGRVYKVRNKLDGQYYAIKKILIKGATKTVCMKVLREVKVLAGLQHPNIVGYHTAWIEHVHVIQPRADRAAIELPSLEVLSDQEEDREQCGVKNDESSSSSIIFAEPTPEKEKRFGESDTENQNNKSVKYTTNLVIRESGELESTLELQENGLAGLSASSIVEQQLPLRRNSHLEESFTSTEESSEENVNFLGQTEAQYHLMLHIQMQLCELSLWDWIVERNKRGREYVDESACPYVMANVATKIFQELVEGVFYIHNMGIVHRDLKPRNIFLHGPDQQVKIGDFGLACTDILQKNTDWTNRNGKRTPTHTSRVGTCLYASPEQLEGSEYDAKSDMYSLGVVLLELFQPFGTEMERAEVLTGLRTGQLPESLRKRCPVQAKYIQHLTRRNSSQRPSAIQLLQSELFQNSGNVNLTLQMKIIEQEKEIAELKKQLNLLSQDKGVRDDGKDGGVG

percent of control binding at 10 µM [1, 11]: 83%
percent of control binding at 10 µM [2, 11]: 100%
percent of control binding at 10 µM [3, 11]: 93%
percent of control binding at 10 µM [4, 11]: 96%
percent of control binding at 10 µM [5, 11]: 95%
percent of control binding at 10 µM [6, 11]: 100%
percent of control binding at 10 µM [7, 11]: 90%
percent of control binding at 10 µM [8, 11]: 90%
percent of control binding at 10 µM [9, 11]: 65%
percent of control binding at 10 µM [10, 11]: 94%
Compound: O=C(c1cc(Cc2n[nH]c(=O)c3ccccc23)ccc1F)N1CCN(C(=O)C2CC2)CC1 [Olaparib]

percent of control binding at 10 µM [1, 12]: 100%
percent of control binding at 10 µM [2, 12]: 100%
percent of control binding at 10 µM [3, 12]: 87%
percent of control binding at 10 µM [4, 12]: 99%
percent of control binding at 10 µM [5, 12]: 86%
percent of control binding at 10 µM [6, 12]: 92%
percent of control binding at 10 µM [7, 12]: 99%
percent of control binding at 10 µM [8, 12]: 100%
percent of control binding at 10 µM [9, 12]: 89%
percent of control binding at 10 µM [10, 12]: 97%
Compound: Cn1ncnc1[C@H]1c2n[nH]c(=O)c3cc(F)cc(c23)N[C@@H]1c1ccc(F)cc1 [Talazoparib]

percent of control binding at 10 µM [1, 13]: 72%
percent of control binding at 10 µM [2, 13]: 88%
percent of control binding at 10 µM [3, 13]: 89%
percent of control binding at 10 µM [4, 13]: 98%
percent of control binding at 10 µM [5, 13]: 83%
percent of control binding at 10 µM [6, 13]: 100%
percent of control binding at 10 µM [7, 13]: 98%
percent of control binding at 10 µM [8, 13]: 80%
percent of control binding at 10 µM [9, 13]: 58%
percent of control binding at 10 µM [10, 13]: 93%
Compound: CNCc1ccc(-c2[nH]c3cc(F)cc4c3c2CCNC4=O)cc1 [Rucaparib]

Compound: NC(=O)c1cccc2cn(-c3ccc([C@@H]4CCCNC4)cc3)nc12 [Niraparib]
percent of control binding at 10 µM [1, 14]: 93%
percent of control binding at 10 µM [2, 14]: 80%
percent of control binding at 10 µM [3, 14]: 71%
percent of control binding at 10 µM [4, 14]: 90%
percent of control binding at 10 µM [5, 14]: 93%
percent of control binding at 10 µM [6, 14]: 76%
percent of control binding at 10 µM [7, 14]: 79%
percent of control binding at 10 µM [8, 14]: 14%
percent of control binding at 10 µM [9, 14]: 63%
percent of control binding at 10 µM [10, 14]: 88%
